The nature of series [1]: Refractive index (abbe refractometer). It counts as physicochemical. As to the method:
The refractive index of each sample was measured using an abbe refractometer (“NAR-lT” manufactured by ATAGO CO., LTD.) at a temperature of 25° C. and a wavelength of 589 nm. Depending on the species of each sample, the refractive index was measured as follows.
For the after-mentioned 16NDSH, 15NDSH, 26NDSH and 27NDSH; 15DGNDSH; 15DHENDSH; 16DMNDSH and 15DMNDSH; and 16DCNDSH and 15DCNDSH, a sample was dissolved in 1,3-dimethyl-2-imidazolidinone (DMI) to prepare multiple solutions with different concentrations, and the refractive index of each solution was measured at a temperature of 25° C. and a wavelength of 589 nm. From the results of the refractive index at each concentration, the refractive index value at 100% by mass of the concentration was determined by extrapolation.
For the after-mentioned 16NDSHMA, 15NDSHMA, 26NDSHMA and 27NDSHMA; 16NDSHA and 15NDSHA; 15DANDSH; and 15DVNDSH, polymerization may occur during the mixing, and thus a sample was dissolved in a methoquinone/DMI solution (a solution containing 4000 ppm of methoquinone relative to the mass of DMI) to prepare multiple solutions with different concentrations. The refractive index of each solution was measured at a temperature of 25° C. and a wavelength of 589 nm. From the results of the refractive index at each concentration, the refractive index value at 100% by mass of the concentration was determined by extrapolation.
For the after-mentioned 16DANDSH; 16DVNDSH; 16DGNDSH; and 16DHENDSH, a sample was liquid for a while after preparation, and thus the refractive index was measured in the state of an undiluted solution. Further, thiol-ene-based resins (thiol-ene-based resins obtained from 16NDSH or 15NDSH and divinylbenzene) were measured in the same manner. […]

Series [2] is described as follows: Dissolubility or compatibility (maximum dissolved concentration, HPLC). It counts as physicochemical. Particulars: for Dissolubility, DMF / Dissolubility, Ethyl acetate / Dissolubility, MMA / Dissolubility, PGMEA / Dissolubility, THF / Dissolubility, Methanol / Dissolubility, Toluene / Dissolubility, Styrene: 25° C.; for Dissolubility, DMF: N,N-dimethylformamide; for Dissolubility, MMA: methyl methacrylate; for Dissolubility, PGMEA: propylene glycol monomethyl ether acetate; for Dissolubility, THF: tetrahydrofuran. As to the method: In more detail, the sample was added to a predetermined amount of a solvent or a polymerizable component until the sample was no longer dissolved, and the sample content of the liquid layer (the solvent layer) of the resulting mixture was analyzed using an HPLC (“SPD-20A” manufactured by SHIMADZU CORPORATION), and thus the concentration (the maximum dissolved concentration) of the sample in the liquid layer (the solvent layer) was determined as a solubility.

[3] abbreviates: 25° C., 589 nm, DMI solutions of different concentrations, value at 100% by mass by extrapolation.
[4] abbreviates: 25° C., 589 nm, methoquinone/DMI solutions, value at 100% by mass by extrapolation.
Setting [5] is: 25° C., 589 nm, measured as undiluted liquid (also thiol-ene-based resins).
Setting [6] is: stated for the raw material used, method not stated.

A value given as a limit tells only on which side of the number the result lay.

Broadly, the melting point is the temperature, or range, at which the solid turns liquid. Molecule `O=C(O)CSc1ccc2c(SCC(=O)O)cccc2c1` [Example 16DCNDSH, 1,6-bis(carboxymethylthio)naphthalene] yielded a melting point of 176 to 178 °C. Besides, the Refractive index in series [1] (setting [3]) is recorded as 1.663. For the same molecule, in series [2], the “Dissolubility, DMF” value is 61.0 % by mass; the “Dissolubility, Ethyl acetate” value was determined as 0.56 % by mass; the “Dissolubility, MMA” value is 0.14 % by mass; the “Dissolubility, PGMEA” value was 0.98 % by mass. The “Dissolubility, THF” value in series [2] was 30.5 % by mass.

As to `Sc1cccc2c(S)cccc12` [Example 15NDSH, 1,5-naphthalenedithiol], the Refractive index in series [1] (setting [3]) is recorded as 1.711. In series [2], the “Dissolubility, DMF” value turned out to be 34.4 % by mass; the “Dissolubility, Ethyl acetate” value is recorded as 7.05 % by mass; the “Dissolubility, Methanol” value turned out to be 1.08 % by mass; the “Dissolubility, PGMEA” value turned out to be 7.44 % by mass. In series [2], the “Dissolubility, THF” value was found to be 29.0 % by mass and the “Dissolubility, Toluene” value came out at 7.26 % by mass. In addition, the saturation solubility result in series [2] (in 55% divinylbenzene (isomer mixture)) was “about 5 % by mass”. In addition, the saturation solubility entry in series [2] (in curable composition with bisphenol A-type liquid epoxy resin) was “about 0.1 % by mass”.

In turn, `C=CSc1cccc2c(SC=C)cccc12` [Example 15DVNDSH, 1,5-bis(vinylthio)naphthalene] had a melting point of 50 to 52 °C. Moreover, in series [1] (setting [4]), the Refractive index is on record as 1.685. Besides, in series [2], the “Dissolubility, Ethyl acetate” value is 39.0 % by mass; the “Dissolubility, MMA” value was found to be 43.6 % by mass; the “Dissolubility, PGMEA” value is 26.3 % by mass; the “Dissolubility, Styrene” value is on record as 45.8 % by mass. In addition, the “Dissolubility, Toluene” value in series [2] is given as 59.6 % by mass.

For the molecule `C=C(C)C(=O)Sc1ccc2cc(SC(=O)C(=C)C)ccc2c1` [Example 26NDSHMA, 2,6-bis(methacryloylthio)naphthalene], the Refractive index in series [1] (setting [4]) is on record as 1.651. In series [2], the “Dissolubility, DMF” value amounted to 4.59 % by mass; the “Dissolubility, Ethyl acetate” value was determined as 1.08 % by mass; the “Dissolubility, Methanol” value came to 0.13 % by mass; the “Dissolubility, MMA” value turned out to be 2.42 % by mass. For the same molecule, in series [2], the “Dissolubility, PGMEA” value stood at 1.46 % by mass; the “Dissolubility, Styrene” value was determined as 5.00 % by mass; the “Dissolubility, THF” value was found to be 9.59 % by mass; the “Dissolubility, Toluene” value is 3.73 % by mass.

For `C=C(C)C(=O)Sc1ccc2ccc(SC(=O)C(=C)C)cc2c1` [Example 27NDSHMA, 2,7-bis(methacryloylthio)naphthalene], the Refractive index in series [1] (setting [4]) is 1.649. Moreover, in series [2], the “Dissolubility, DMF” value is listed as 17.5 % by mass; the “Dissolubility, Ethyl acetate” value is 3.20 % by mass; the “Dissolubility, Methanol” value came out at 0.20 % by mass; the “Dissolubility, MMA” value was determined as 4.36 % by mass. In series [2], the “Dissolubility, PGMEA” value was determined as 2.68 % by mass; the “Dissolubility, Styrene” value worked out at 7.92 % by mass; the “Dissolubility, THF” value was 13.1 % by mass; the “Dissolubility, Toluene” value was found to be 6.84 % by mass.

Take `c1cc(SCC2CO2)c2ccc(SCC3CO3)cc2c1` (stereo not drawn) [Example 16DGNDSH, 1,6-bis(glycidylthio)naphthalene]: the Refractive index in series [1] (setting [5]) is reported as 1.665. For the same molecule, in series [2], the “Dissolubility, Ethyl acetate” value was “Freely blended (>90) % by mass”; the “Dissolubility, MMA” value is “Freely blended (>90) % by mass”; the “Dissolubility, PGMEA” value was “Freely blended (>90) % by mass”; the “Dissolubility, Styrene” value is recorded as “Freely blended (>90) % by mass”. For the same molecule, in series [2], the “Dissolubility, Toluene” value is recorded as “Freely blended (>90) % by mass”.

For `OCCSc1ccc2c(SCCO)cccc2c1` [Example 16DHENDSH, 1,6-bis(2-hydroxyethylthio)naphthalene], the Refractive index in series [1] (setting [5]) amounted to 1.672. Further, in series [2], the “Dissolubility, Ethyl acetate” value is “Freely blended (>90) % by mass”; the “Dissolubility, MMA” value is reported as “Freely blended (>90) % by mass”; the “Dissolubility, PGMEA” value is given as “Freely blended (>90) % by mass”; the “Dissolubility, Styrene” value worked out at 2.87 % by mass. Besides, the “Dissolubility, Toluene” value in series [2] is 1.69 % by mass.

In the case of `Sc1ccc2c(S)cccc2c1` [Example 16NDSH, 1,6-naphthalenedithiol], the Refractive index in series [1] (setting [3]) was 1.722. In series [2], the “Dissolubility, Methanol” value amounted to 19.3 % by mass.

Consider `OCCSc1cccc2c(SCCO)cccc12` [Example 15DHENDSH, 1,5-bis(2-hydroxyethylthio)naphthalene], for which the melting point was 84 to 86 °C. Also, in series [1] (setting [3]), the Refractive index was 1.668. Further, in series [2], the “Dissolubility, Ethyl acetate” value was 3.01 % by mass; the “Dissolubility, MMA” value is reported as 34.7 % by mass; the “Dissolubility, PGMEA” value worked out at 3.60 % by mass; the “Dissolubility, Styrene” value was determined as 0.35 % by mass. In series [2], the “Dissolubility, Toluene” value is 0.19 % by mass.

As to `C=CCSc1cccc2c(SCC=C)cccc12` [Example 15DANDSH, 1,5-bis(allylthio)naphthalene], the melting point was 78 to 79 °C. The Refractive index in series [1] (setting [4]) is given as 1.653. In addition, in series [2], the “Dissolubility, Ethyl acetate” value is given as 16.4 % by mass; the “Dissolubility, MMA” value came to 26.6 % by mass; the “Dissolubility, PGMEA” value is given as 13.7 % by mass; the “Dissolubility, Styrene” value amounted to 10.6 % by mass. Moreover, in series [2], the “Dissolubility, Toluene” value turned out to be 26.1 % by mass.

Consider `CCc1nc(C)c[nH]1` [2-ethyl-4-methylimidazole], for which, in series [1] (setting [6]), the Refractive index turned out to be 1.499.

As to `C=C(C)C(=O)Sc1cccc2c(SC(=O)C(=C)C)cccc12` [Example 15NDSHMA, 1,5-bis(methacryloylthio)naphthalene], the Refractive index in series [1] (setting [4]) is listed as 1.638. In series [2], the “Dissolubility, DMF” value stood at 13.2 % by mass; the “Dissolubility, Ethyl acetate” value came to 4.36 % by mass; the “Dissolubility, Methanol” value was 0.36 % by mass; the “Dissolubility, MMA” value is listed as 5.22 % by mass. In series [2], the “Dissolubility, PGMEA” value worked out at 3.34 % by mass; the “Dissolubility, Styrene” value is given as 10.4 % by mass; the “Dissolubility, THF” value amounted to 18.7 % by mass; the “Dissolubility, Toluene” value is 6.73 % by mass. The saturation solubility entry in series [2] (in styrene (curable resin)) is listed as “about 10 % by mass”.

On to `C=C(C)C(=O)Sc1ccc2c(SC(=O)C(=C)C)cccc2c1` [Example 16NDSHMA, 1,6-bis(methacryloylthio)naphthalene], for which the Refractive index in series [1] (setting [4]) was 1.647. Besides, in series [2], the “Dissolubility, DMF” value is on record as 59.5 % by mass; the “Dissolubility, Ethyl acetate” value is 44.6 % by mass; the “Dissolubility, Methanol” value worked out at 2.49 % by mass; the “Dissolubility, MMA” value was determined as 44.1 % by mass. Besides, in series [2], the “Dissolubility, PGMEA” value came to 31.1 % by mass; the “Dissolubility, Styrene” value turned out to be 51.1 % by mass; the “Dissolubility, THF” value was 67.6 % by mass; the “Dissolubility, Toluene” value is 50.7 % by mass.

Molecule `C=CCSc1ccc2c(SCC=C)cccc2c1` [Example 16DANDSH, 1,6-bis(allylthio)naphthalene] had a Refractive index in series [1] (setting [5]) of 1.667. In series [2], the “Dissolubility, Ethyl acetate” value is on record as “Freely blended (>90) % by mass”; the “Dissolubility, MMA” value is “Freely blended (>90) % by mass”; the “Dissolubility, PGMEA” value is “Freely blended (>90) % by mass”; the “Dissolubility, Styrene” value is recorded as “Freely blended (>90) % by mass”. Further, the “Dissolubility, Toluene” value in series [2] is listed as “Freely blended (>90) % by mass”.

As to `C=Cc1ccccc1` [styrene], the Refractive index in series [1] (setting [6]) came to 1.544.

Regarding `C=CSc1ccc2c(SC=C)cccc2c1` [Example 16DVNDSH, 1,6-bis(vinylthio)naphthalene], the Refractive index in series [1] (setting [5]) worked out at 1.699. In series [2], the “Dissolubility, Ethyl acetate” value was “Freely blended (>90) % by mass”; the “Dissolubility, MMA” value was “Freely blended (>90) % by mass”; the “Dissolubility, PGMEA” value is given as “Freely blended (>90) % by mass”; the “Dissolubility, Styrene” value is given as “Freely blended (>90) % by mass”. Further, the “Dissolubility, Toluene” value in series [2] is listed as “Freely blended (>90) % by mass”.

For `O=C(O)CSc1cccc2c(SCC(=O)O)cccc12` [Example 15DCNDSH, 1,5-bis(carboxymethylthio)naphthalene], in series [1] (setting [3]), the Refractive index is recorded as 1.657. In series [2], the “Dissolubility, DMF” value is reported as 10.1 % by mass; the “Dissolubility, Ethyl acetate” value amounted to 0.03 % by mass; the “Dissolubility, MMA” value is reported as less than 0.01 % by mass; the “Dissolubility, PGMEA” value is recorded as 0.02 % by mass. The “Dissolubility, THF” value in series [2] is listed as 0.67 % by mass.

(Values after patent publication US20240383845A1, “NAPHTHALENEDITHIOL AND DERIVATIVE THEREOF, AND PRODUCTION PROCESS AND USE FOR THE SAME” (SUGAI CHEMICAL INDUSTRY CO., LTD., priority 2021, published 2024).)
